From article doi:10.1101/2020.10.22.350827v1 (biorxiv, 2020)
Substitutions are numbered along the chain they refer to. pKi: −log10 of the molar value.

Tests used:
[1] = target: T1, Nluc-A1R (adenosine A1 receptor) Q9A (Homo sapiens, UniProt P30542, Q9A); test: cell-based; design: species or system HEK 293
T1 sequence (P30542 1-326 Q9A): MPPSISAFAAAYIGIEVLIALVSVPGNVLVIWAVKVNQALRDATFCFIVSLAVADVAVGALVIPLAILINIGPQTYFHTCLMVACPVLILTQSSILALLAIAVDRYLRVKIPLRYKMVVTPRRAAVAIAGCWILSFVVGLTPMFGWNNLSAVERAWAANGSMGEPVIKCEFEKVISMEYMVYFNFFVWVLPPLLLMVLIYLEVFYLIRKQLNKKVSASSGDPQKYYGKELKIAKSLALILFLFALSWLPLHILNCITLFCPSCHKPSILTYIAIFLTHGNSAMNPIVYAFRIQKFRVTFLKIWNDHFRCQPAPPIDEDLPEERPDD

[2] = target: T2, Nluc-A1R (adenosine A1 receptor) (Homo sapiens, UniProt P30542, I69A); test: NanoBRET competition binding, live HEK […] cells; format: cell-based
T2 sequence (P30542 1-326 I69A): T1 sequence (P30542 1-326 Q9A) with A9Q, I69A

- pKi [1]: 5.71
- pKi [2]: 4.34
Structure (SMILES): OC[C@H]1O[C@@H](n2cnc3c(N[C@@H]4CCC[C@H]4O)ncnc32)[C@H](O)[C@@H]1O [compound 6, HOCPA]
